Data taken from ChEMBL document CHEMBL1201862, “PubChem BioAssay data set” (2004).
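Each compound was tested at five concentrations against cells in 96-well plates for 48 hours. The concentration for 50% growth inhibition is given as GI50.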 The source made the active and inactive calls. Cut-off read from the data, not from the text of the source: active = GI50 up to about 1.1 µM and inactive = higher.

Tests used:
Experiment in all cases: NCI-60 cell line screen, 48 h
IGROV-1 = system: IGROV-1
SNB-75 = system: SNB-75
OVCAR-8 = system: OVCAR-8
SK-MEL-28 = system: SK-MEL-28
NCI-H226 = system: NCI-H226
HOP-92 = system: HOP-92
K562 = system: K562
RXF 393 = system: RXF 393
SNB-19 = system: SNB-19
NCI-H23 = system: NCI-H23
SK-OV-3 = system: SK-OV-3
Malme-3M = system: Malme-3M
CCRF-CEM = system: CCRF-CEM
OVCAR-4 = system: OVCAR-4
U-251 = system: U-251
MDA-N = system: MDA-N
SK-MEL-5 = system: SK-MEL-5
RPMI-8226 = system: RPMI-8226
SF-268 = system: SF-268
OVCAR-3 = system: OVCAR-3

SMILES	GI50 (IGROV-1)	GI50 (SNB-75)	GI50 (OVCAR-8)	GI50 (SK-MEL-28)	GI50 (NCI-H226)	GI50 (HOP-92)	GI50 (K562)	GI50 (RXF 393)	GI50 (SNB-19)	GI50 (NCI-H23)	GI50 (SK-OV-3)	GI50 (Malme-3M)	GI50 (CCRF-CEM)	GI50 (OVCAR-4)	GI50 (U-251)	GI50 (MDA-N)	GI50 (SK-MEL-5)	GI50 (RPMI-8226)	GI50 (SF-268)	GI50 (OVCAR-3)
c1ccc2[nH]c3nc4ccccc4c-3cc2c1	0.286 µM (active)	2.1 µM (inactive)	0.363 µM (active)	1.31 µM (inactive)	1.02 µM (active)	7.26 µM (inactive)	0.189 µM (active)	0.457 µM (active)	0.785 µM (active)	0.615 µM (active)	0.839 µM (active)	0.92 µM (active)	0.197 µM (active)	1.03 µM (active)	0.454 µM (active)	0.641 µM (active)	0.698 µM (active)	0.327 µM (active)	0.598 µM (active)	–
CCc1nc(N)nc(N)c1-c1ccc(Cc2ccccc2)c([N+](=O)[O-])c1	0.0702 µM (active)	23.3 µM (inactive)	< 0.0153 µM (active)	> 39.5 µM (inactive)	27.6 µM (inactive)	1.17 µM (inactive)	< 0.01 µM (active)	24.5 µM (inactive)	1.51 µM (inactive)	0.0171 µM (active)	7.87 µM (inactive)	–	< 0.01 µM (active)	16.6 µM (inactive)	< 0.0178 µM (active)	< 0.046 µM (active)	< 0.01 µM (active)	0.0622 µM (active)	0.0192 µM (active)	0.873 µM (active)
O=C1OC(C2=CC(=O)c3ccccc3C2=O)C(Cl)=C1Cl (centres undefined)	–	37.2 µM (inactive)	13.7 µM (inactive)	41 µM (inactive)	27.2 µM (inactive)	47 µM (inactive)	32.7 µM (inactive)	25.2 µM (inactive)	56.1 µM (inactive)	24.4 µM (inactive)	79.6 µM (inactive)	26.5 µM (inactive)	20 µM (inactive)	–	28.1 µM (inactive)	39.5 µM (inactive)	31.1 µM (inactive)	19.5 µM (inactive)	27.2 µM (inactive)	33.1 µM (inactive)
CCN(CC)CCCC(C)Nc1ccnc2cc(Cl)ccc12 (centres undefined) [CHLOROQUINE PHOSPHATE]	24.5 µM (inactive)	> 60.5 µM (inactive)	33.4 µM (inactive)	20.6 µM (inactive)	–	15.7 µM (inactive)	12.4 µM (inactive)	2.4 µM (inactive)	> 76.4 µM (inactive)	> 84.7 µM (inactive)	> 76.7 µM (inactive)	20.9 µM (inactive)	20.8 µM (inactive)	51.3 µM (inactive)	21.2 µM (inactive)	16.6 µM (inactive)	26.2 µM (inactive)	19.5 µM (inactive)	60.7 µM (inactive)	97.1 µM (inactive)
CC(C)C(=O)OCC1CCCN2CCCCC12 (centres undefined)	–	> 100 µM (inactive)	> 100 µM (inactive)	97.9 µM (inactive)	> 100 µM (inactive)	> 100 µM (inactive)	51.3 µM (inactive)	> 100 µM (inactive)	> 100 µM (inactive)	> 100 µM (inactive)	> 100 µM (inactive)	> 100 µM (inactive)	51.3 µM (inactive)	> 100 µM (inactive)	> 100 µM (inactive)	> 100 µM (inactive)	> 100 µM (inactive)	95.3 µM (inactive)	> 100 µM (inactive)	> 100 µM (inactive)
COC(=O)[C@H]1[C@H](OC(=O)[C@@H](OC)c2ccccc2)ON2CC[C@@H](OC(=O)c3ccccc3)[C@H]12	49.9 µM (inactive)	29 µM (inactive)	61.4 µM (inactive)	> 100 µM (inactive)	> 100 µM (inactive)	30.3 µM (inactive)	> 100 µM (inactive)	64.4 µM (inactive)	> 100 µM (inactive)	> 100 µM (inactive)	> 100 µM (inactive)	> 100 µM (inactive)	> 100 µM (inactive)	> 100 µM (inactive)	70.1 µM (inactive)	> 100 µM (inactive)	> 100 µM (inactive)	> 100 µM (inactive)	54.3 µM (inactive)	–
COc1ccc(/C=C2\C[C@H]3[C@@H]4CC=C5C[C@@H](OC(C)=O)CC[C@]5(C)[C@H]4CC[C@]3(C)\C2=N\O)cc1OC	53.3 µM (inactive)	> 100 µM (inactive)	5.71 µM (inactive)	> 100 µM (inactive)	9.2 µM (inactive)	3.89 µM (inactive)	5.19 µM (inactive)	7.4 µM (inactive)	25 µM (inactive)	29.2 µM (inactive)	68.1 µM (inactive)	53 µM (inactive)	7.5 µM (inactive)	11.4 µM (inactive)	–	10.4 µM (inactive)	2.71 µM (inactive)	4.86 µM (inactive)	> 100 µM (inactive)	24.3 µM (inactive)
CCCCCCCCCCCC(=O)Oc1c(Cl)cc(Cl)c(OC(=O)C(=O)Oc2c(Cl)cc(Cl)c(OC(=O)CCCCCCCCCCC)c2Cl)c1Cl	> 100 µM (inactive)	> 100 µM (inactive)	> 100 µM (inactive)	> 100 µM (inactive)	–	> 100 µM (inactive)	–	> 100 µM (inactive)	> 100 µM (inactive)	> 100 µM (inactive)	> 100 µM (inactive)	> 100 µM (inactive)	> 100 µM (inactive)	> 100 µM (inactive)	> 100 µM (inactive)	> 100 µM (inactive)	> 100 µM (inactive)	> 100 µM (inactive)	> 100 µM (inactive)	–
COc1cc(S(=O)(=O)Nc2nc(-c3ccc(N4C(=O)C(CC(=O)O)SC4c4ccccc4O)cc3)cs2)ccc1Cl (centres undefined)	34.9 µM (inactive)	> 100 µM (inactive)	62.8 µM (inactive)	> 100 µM (inactive)	61.4 µM (inactive)	31 µM (inactive)	38.2 µM (inactive)	61.2 µM (inactive)	> 100 µM (inactive)	22.1 µM (inactive)	62.4 µM (inactive)	> 100 µM (inactive)	–	34.3 µM (inactive)	45.8 µM (inactive)	> 100 µM (inactive)	29 µM (inactive)	–	> 100 µM (inactive)	55.7 µM (inactive)
COc1ccccc1/C=C/c1c(N)ncnc1Nc1cccc(Cl)c1	1.69 µM (inactive)	9.53 µM (inactive)	25.4 µM (inactive)	16.4 µM (inactive)	17.4 µM (inactive)	0.243 µM (active)	0.376 µM (active)	16 µM (inactive)	20.6 µM (inactive)	20.8 µM (inactive)	–	30.5 µM (inactive)	0.16 µM (active)	14.6 µM (inactive)	15.7 µM (inactive)	25 µM (inactive)	22 µM (inactive)	0.318 µM (active)	16.1 µM (inactive)	25.2 µM (inactive)
CNc1ccc(C(=O)CC(O)CCC(C)C2OC(=O)CC(O)CC(=O)CC(O)CC(O)CC(O)CC(O)CC3(O)CC(O)C(C(=O)NCCN(C)C)C(CC(OC4OC(C)C(O)C(NC(=O)CN5CCN(C)CC5)C4O)\C=C/C=C\C=C/C=C/C=C/C=C\C=C/C2C)O3)cc1 (centres undefined)	7.67 µM (inactive)	> 100 µM (inactive)	13.9 µM (inactive)	9.27 µM (inactive)	> 100 µM (inactive)	> 100 µM (inactive)	3.2 µM (inactive)	> 100 µM (inactive)	3.38 µM (inactive)	4.54 µM (inactive)	> 100 µM (inactive)	2.28 µM (inactive)	–	14 µM (inactive)	4.86 µM (inactive)	6.46 µM (inactive)	2.81 µM (inactive)	–	6.64 µM (inactive)	–
c1ccc(Nc2nn3c(CCCCCCCCc4nnc5sc(Nc6ccccc6)nn45)nnc3s2)cc1	–	22.4 µM (inactive)	22 µM (inactive)	27.6 µM (inactive)	40.9 µM (inactive)	22.9 µM (inactive)	15.3 µM (inactive)	41.6 µM (inactive)	26 µM (inactive)	21.3 µM (inactive)	32.1 µM (inactive)	37.1 µM (inactive)	20.4 µM (inactive)	21.8 µM (inactive)	35.2 µM (inactive)	18.4 µM (inactive)	12.2 µM (inactive)	22.3 µM (inactive)	43 µM (inactive)	23.6 µM (inactive)
CCCC(=O)NC(Nc1ccc(F)cc1)(C(F)(F)F)C(F)(F)F	–	> 100 µM (inactive)	24.1 µM (inactive)	> 75.2 µM (inactive)	> 100 µM (inactive)	> 100 µM (inactive)	0.1 µM (active)	> 100 µM (inactive)	> 100 µM (inactive)	> 43.4 µM (inactive)	> 100 µM (inactive)	> 100 µM (inactive)	–	12.6 µM (inactive)	> 100 µM (inactive)	> 40.7 µM (inactive)	1.03 µM (active)	32.2 µM (inactive)	> 100 µM (inactive)	> 100 µM (inactive)
OCC1c2ccccc2-n2nc(-c3ccccc3)c(O)c21 (centres undefined)	36.2 µM (inactive)	68.9 µM (inactive)	18.5 µM (inactive)	58.1 µM (inactive)	79.4 µM (inactive)	16.9 µM (inactive)	21.4 µM (inactive)	17.7 µM (inactive)	37.9 µM (inactive)	54.7 µM (inactive)	39.4 µM (inactive)	17.1 µM (inactive)	28.6 µM (inactive)	26.9 µM (inactive)	19.4 µM (inactive)	46.1 µM (inactive)	33.3 µM (inactive)	–	36.9 µM (inactive)	26.7 µM (inactive)
